Data reported in ChEMBL document CHEMBL1201862, “PubChem BioAssay data set” (2004).
The source made the active and inactive calls.

How the values were obtained:
Assay type in all cases: functional
[1] = molecular target: Protein kinase C theta type (Homo sapiens, UniProt Q04759); assay: Navigating the Kinome. Panel member name: PRKCQ
[2] = molecular target: Dual specificity mitogen-activated protein kinase kinase 1 (Homo sapiens, UniProt Q02750); assay: Navigating the Kinome. Panel member name: MAP2K1
[3] = molecular target: ALK tyrosine kinase receptor (Homo sapiens, UniProt Q9UM73);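 note: ALK tested as one member of a kinase panel screen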
[4] = molecular target: Tyrosine-protein kinase receptor TYRO3 (Homo sapiens, UniProt Q06418);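 note: TYRO3 value obtained as one member of a kinome-wide profiling panel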
[5] = molecular target: Tyrosine-protein kinase Lck (Homo sapiens, UniProt P06239);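 note: lck was assayed as one member of a kinase panel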
[6] = molecular target: Activin receptor type-1 (Homo sapiens, UniProt Q04771); assay: Navigating the Kinome. Panel member name: ACVR1
[7] = molecular target: Mitogen-activated protein kinase 8 (Homo sapiens, UniProt P45983);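 note: value comes from one member of a kinome-wide kinase profiling panel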
[8] = molecular target: Serine/threonine-protein kinase pim-1 (Homo sapiens, UniProt P11309)
[9] = molecular target: T1, Aurora kinase A (Homo sapiens, UniProt O14965);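 note: value from the Navigating the Kinome kinase panel profiling, panel entry STK6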
T1 sequence (O14965 whole entry): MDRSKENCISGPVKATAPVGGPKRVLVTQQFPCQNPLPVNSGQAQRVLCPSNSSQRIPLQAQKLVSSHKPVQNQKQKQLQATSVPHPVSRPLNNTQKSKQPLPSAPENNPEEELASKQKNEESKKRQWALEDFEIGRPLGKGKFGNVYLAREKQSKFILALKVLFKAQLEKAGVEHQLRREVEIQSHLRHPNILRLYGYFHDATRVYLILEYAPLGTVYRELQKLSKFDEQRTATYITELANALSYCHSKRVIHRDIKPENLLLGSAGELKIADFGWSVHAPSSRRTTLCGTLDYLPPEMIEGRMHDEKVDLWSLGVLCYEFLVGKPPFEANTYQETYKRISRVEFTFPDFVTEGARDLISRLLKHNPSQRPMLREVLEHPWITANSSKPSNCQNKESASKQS

[10] = molecular target: Fibroblast growth factor receptor 1 (Homo sapiens, UniProt P11362)
[11] = molecular target: Casein kinase I isoform alpha (Homo sapiens, UniProt P48729)
[12] = molecular target: LIM domain kinase 1 (Homo sapiens, UniProt P53667); assay: Navigating the Kinome. Panel member name: LIMK1
[13] = molecular target: Mitogen-activated protein kinase kinase kinase kinase 2 (Homo sapiens, UniProt Q12851);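 note: measured as one member of a kinome-wide kinase panel, with MAP4K2 as the panel entry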
[14] = molecular target: Hepatocyte growth factor receptor (Homo sapiens, UniProt P08581);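 note: kinase panel profiling across the kinome, with MET as the panel member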
[15] = molecular target: Receptor-type tyrosine-protein kinase FLT3 (Homo sapiens, UniProt P36888);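 note: FLT3 was tested as one member of a kinome-wide kinase panel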
[16] = molecular target: Serine/threonine-protein kinase Chk1 (Homo sapiens, UniProt O14757);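 note: measured as one member of a kinome-wide kinase profiling panel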
[17] = molecular target: Tyrosine-protein kinase ABL1 (Homo sapiens, UniProt P00519)
[18] = molecular target: Vascular endothelial growth factor receptor 2 (Homo sapiens, UniProt P35968)
[19] = molecular target: Cyclin-dependent kinase 5 (Homo sapiens, UniProt Q00535);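 note: CDK5 measured as one member of a kinase profiling panel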
[20] = molecular target: Dual specificity tyrosine-phosphorylation-regulated kinase 1B (Homo sapiens, UniProt Q9Y463); assay: Navigating the Kinome. Panel member name: DYRK1B
[21] = molecular target: Platelet-derived growth factor receptor alpha (Homo sapiens, UniProt P16234); assay: Navigating the Kinome. Panel member name: PDGFRA
[22] = molecular target: Leucine-rich repeat serine/threonine-protein kinase 2 (Homo sapiens, UniProt Q5S007);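 note: value from a broad kinome-wide panel profiling study in which LRRK2 was one of the kinases tested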
[23] = molecular target: Aurora kinase B (Homo sapiens, UniProt Q96GD4)
[24] = molecular target: Rho-associated protein kinase 1 (Homo sapiens, UniProt Q13464);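 note: measured within a broad kinome-wide panel profiling many kinases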
[25] = molecular target: Tyrosine-protein kinase Fyn (Homo sapiens, UniProt P06241)
[26] = molecular target: Cyclin-dependent kinase 8 (Homo sapiens, UniProt P49336); assay: Navigating the Kinome. Panel member name: CDK8
[27] = molecular target: Cyclin-dependent kinase 7 (Homo sapiens, UniProt P50613);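 note: value comes from a kinome-wide kinase profiling panel in which CDK7 is one member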
[28] = molecular target: Glycogen synthase kinase-3 beta (Homo sapiens, UniProt P49841);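 note: value comes from a broad kinome profiling panel, with GSK3B as the panel member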
[29] = molecular target: Cyclin-dependent kinase 9 (Homo sapiens, UniProt P50750);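 note: value from the CDK9 entry of a kinome-spanning kinase panel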
[30] = molecular target: cAMP-dependent protein kinase catalytic subunit alpha (Homo sapiens, UniProt P17612)
[31] = molecular target: Dual specificity protein kinase CLK4 (Homo sapiens, UniProt Q9HAZ1)
[32] = molecular target: Mitogen-activated protein kinase kinase kinase kinase 4 (Homo sapiens, UniProt O95819)
[33] = molecular target: Macrophage-stimulating protein receptor (Homo sapiens, UniProt Q04912); assay: Navigating the Kinome. Panel member name: MST1R
[34] = molecular target: Macrophage colony-stimulating factor 1 receptor (Homo sapiens, UniProt P07333);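 note: value comes from the Navigating the Kinome screening panel, CSF1R member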
[35] = molecular target: Dual specificity tyrosine-phosphorylation-regulated kinase 1A (Homo sapiens, UniProt Q13627);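 note: measured against DYRK1A as one member of a broad kinome profiling panel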
[36] = molecular target: Leukocyte tyrosine kinase receptor (Homo sapiens, UniProt P29376); assay: Navigating the Kinome. Panel member name: LTK

ALK tyrosine kinase receptor, sequence (Q9UM73 whole entry): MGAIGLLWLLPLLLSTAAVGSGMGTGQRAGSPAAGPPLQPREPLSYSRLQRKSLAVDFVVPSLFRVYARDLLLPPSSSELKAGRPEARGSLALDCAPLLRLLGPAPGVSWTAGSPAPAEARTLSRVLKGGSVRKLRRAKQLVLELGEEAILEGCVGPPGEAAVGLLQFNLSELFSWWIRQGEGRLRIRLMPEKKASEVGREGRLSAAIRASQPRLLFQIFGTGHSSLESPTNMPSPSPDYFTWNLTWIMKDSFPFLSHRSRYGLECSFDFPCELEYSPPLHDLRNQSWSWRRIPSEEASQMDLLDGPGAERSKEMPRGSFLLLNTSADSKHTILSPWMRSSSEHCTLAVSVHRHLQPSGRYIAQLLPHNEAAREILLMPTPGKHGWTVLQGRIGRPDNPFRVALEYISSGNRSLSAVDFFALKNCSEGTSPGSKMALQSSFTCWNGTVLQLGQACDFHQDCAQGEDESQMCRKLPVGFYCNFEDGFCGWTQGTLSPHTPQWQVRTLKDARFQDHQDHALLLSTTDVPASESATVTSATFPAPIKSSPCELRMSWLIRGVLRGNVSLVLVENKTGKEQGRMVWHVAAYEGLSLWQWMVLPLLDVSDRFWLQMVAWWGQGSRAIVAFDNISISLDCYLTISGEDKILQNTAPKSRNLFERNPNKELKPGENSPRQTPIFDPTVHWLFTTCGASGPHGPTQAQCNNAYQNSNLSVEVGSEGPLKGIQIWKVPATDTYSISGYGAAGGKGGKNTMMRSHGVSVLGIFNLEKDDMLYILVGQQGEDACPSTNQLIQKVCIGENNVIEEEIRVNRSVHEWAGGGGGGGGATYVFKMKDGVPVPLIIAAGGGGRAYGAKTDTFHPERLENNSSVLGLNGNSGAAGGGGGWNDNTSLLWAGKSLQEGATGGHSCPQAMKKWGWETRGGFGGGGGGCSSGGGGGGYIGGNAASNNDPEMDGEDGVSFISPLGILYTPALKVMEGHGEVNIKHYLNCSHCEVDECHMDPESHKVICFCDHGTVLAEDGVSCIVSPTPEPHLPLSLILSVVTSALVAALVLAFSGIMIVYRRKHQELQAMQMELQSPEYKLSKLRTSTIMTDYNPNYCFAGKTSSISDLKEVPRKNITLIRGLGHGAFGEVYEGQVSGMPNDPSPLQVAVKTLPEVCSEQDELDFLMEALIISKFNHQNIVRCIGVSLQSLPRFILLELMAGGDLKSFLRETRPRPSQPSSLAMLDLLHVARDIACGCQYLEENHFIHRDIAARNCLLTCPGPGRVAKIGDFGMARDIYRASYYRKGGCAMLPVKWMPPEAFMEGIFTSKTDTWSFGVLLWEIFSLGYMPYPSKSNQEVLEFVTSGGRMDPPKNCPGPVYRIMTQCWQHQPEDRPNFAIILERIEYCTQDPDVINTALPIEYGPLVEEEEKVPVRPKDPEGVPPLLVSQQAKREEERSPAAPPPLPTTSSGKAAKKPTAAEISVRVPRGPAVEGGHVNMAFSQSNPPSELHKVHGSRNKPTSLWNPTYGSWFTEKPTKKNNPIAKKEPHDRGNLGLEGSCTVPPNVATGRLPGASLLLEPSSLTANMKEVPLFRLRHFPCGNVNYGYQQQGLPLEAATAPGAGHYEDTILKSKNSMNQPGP
Fibroblast growth factor receptor 1, sequence (P11362 whole entry, canonical isoform): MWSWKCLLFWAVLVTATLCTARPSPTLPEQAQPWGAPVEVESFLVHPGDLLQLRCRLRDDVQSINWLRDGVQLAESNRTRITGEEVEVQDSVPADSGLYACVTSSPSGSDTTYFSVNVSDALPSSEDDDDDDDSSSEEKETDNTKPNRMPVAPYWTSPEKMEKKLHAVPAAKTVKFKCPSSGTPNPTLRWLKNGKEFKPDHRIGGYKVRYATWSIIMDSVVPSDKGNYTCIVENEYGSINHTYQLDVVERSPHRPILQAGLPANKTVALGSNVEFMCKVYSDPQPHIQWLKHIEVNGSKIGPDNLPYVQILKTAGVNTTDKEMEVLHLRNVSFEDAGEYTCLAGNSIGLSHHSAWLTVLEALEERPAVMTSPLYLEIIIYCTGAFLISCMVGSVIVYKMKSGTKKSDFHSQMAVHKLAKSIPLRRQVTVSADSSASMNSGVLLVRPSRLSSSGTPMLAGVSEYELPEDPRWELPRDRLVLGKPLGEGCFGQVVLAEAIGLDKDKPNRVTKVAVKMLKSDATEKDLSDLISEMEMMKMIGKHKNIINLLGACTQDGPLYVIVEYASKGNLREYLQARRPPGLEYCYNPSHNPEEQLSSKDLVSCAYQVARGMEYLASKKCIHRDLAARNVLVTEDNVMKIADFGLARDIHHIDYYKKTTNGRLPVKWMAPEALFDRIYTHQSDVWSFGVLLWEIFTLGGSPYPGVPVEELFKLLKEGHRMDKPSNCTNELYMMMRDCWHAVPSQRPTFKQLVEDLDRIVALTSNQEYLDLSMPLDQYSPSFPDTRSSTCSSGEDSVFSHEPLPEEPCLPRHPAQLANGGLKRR
Mitogen-activated protein kinase kinase kinase kinase 4, sequence (O95819 whole entry): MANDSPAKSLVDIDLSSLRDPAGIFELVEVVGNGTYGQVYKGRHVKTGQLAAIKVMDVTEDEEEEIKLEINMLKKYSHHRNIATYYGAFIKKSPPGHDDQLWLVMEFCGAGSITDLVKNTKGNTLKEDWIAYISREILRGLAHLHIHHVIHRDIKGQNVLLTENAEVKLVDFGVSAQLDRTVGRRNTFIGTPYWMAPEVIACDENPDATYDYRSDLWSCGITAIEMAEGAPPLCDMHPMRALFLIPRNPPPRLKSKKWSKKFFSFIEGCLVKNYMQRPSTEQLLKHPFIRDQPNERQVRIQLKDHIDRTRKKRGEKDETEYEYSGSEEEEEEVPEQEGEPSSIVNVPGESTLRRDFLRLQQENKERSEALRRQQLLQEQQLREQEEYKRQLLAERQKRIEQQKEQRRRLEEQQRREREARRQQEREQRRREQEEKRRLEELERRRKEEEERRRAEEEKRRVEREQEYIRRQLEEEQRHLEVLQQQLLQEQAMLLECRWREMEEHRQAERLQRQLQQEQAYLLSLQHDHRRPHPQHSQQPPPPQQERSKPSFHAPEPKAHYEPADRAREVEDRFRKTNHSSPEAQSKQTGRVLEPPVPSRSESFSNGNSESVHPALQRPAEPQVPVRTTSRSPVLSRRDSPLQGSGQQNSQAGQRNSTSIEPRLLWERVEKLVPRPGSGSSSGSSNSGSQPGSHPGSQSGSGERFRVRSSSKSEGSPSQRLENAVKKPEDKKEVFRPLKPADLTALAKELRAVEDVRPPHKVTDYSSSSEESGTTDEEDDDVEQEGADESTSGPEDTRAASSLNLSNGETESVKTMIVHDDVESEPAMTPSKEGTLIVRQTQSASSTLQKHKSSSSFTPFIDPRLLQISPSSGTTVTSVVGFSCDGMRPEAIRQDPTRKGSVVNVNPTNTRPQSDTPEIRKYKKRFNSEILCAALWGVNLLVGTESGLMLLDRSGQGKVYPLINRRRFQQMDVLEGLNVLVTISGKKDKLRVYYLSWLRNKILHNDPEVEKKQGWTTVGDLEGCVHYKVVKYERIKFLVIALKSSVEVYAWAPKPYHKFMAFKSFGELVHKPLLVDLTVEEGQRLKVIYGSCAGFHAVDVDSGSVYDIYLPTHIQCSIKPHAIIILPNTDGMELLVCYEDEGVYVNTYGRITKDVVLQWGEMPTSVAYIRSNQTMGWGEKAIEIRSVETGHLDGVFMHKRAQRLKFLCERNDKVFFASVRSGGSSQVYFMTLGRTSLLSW
Dual specificity mitogen-activated protein kinase kinase 1, sequence (Q02750 whole entry): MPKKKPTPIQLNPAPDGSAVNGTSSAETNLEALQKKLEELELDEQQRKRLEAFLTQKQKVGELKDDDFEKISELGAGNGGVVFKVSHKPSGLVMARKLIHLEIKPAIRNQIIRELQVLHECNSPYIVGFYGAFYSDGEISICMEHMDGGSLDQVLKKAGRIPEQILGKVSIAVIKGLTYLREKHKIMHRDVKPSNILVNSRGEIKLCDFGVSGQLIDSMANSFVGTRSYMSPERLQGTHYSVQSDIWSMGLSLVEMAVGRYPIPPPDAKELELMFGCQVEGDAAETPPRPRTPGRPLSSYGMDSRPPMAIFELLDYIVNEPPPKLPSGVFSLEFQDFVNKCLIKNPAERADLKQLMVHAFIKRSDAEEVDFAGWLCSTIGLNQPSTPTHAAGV
Cyclin-dependent kinase 9, sequence (P50750 whole entry): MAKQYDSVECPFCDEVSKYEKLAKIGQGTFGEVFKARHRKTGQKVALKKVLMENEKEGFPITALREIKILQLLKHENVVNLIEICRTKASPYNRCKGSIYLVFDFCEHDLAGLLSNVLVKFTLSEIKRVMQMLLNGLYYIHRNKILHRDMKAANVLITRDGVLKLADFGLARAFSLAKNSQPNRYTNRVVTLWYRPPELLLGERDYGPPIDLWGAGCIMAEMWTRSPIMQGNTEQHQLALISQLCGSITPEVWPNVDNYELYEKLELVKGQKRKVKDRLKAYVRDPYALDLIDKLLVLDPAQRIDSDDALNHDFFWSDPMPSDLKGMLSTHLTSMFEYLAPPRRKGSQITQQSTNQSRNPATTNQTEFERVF
Serine/threonine-protein kinase pim-1, sequence (P11309 whole entry): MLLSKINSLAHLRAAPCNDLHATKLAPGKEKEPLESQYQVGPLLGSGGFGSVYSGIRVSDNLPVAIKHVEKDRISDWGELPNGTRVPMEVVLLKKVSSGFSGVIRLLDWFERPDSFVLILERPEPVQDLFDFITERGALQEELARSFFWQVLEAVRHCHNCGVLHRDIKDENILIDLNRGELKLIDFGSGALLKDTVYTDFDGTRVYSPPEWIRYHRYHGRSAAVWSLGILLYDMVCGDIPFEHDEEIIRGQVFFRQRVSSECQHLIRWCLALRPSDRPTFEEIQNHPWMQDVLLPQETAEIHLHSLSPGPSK
Cyclin-dependent kinase 5, sequence (Q00535 whole entry): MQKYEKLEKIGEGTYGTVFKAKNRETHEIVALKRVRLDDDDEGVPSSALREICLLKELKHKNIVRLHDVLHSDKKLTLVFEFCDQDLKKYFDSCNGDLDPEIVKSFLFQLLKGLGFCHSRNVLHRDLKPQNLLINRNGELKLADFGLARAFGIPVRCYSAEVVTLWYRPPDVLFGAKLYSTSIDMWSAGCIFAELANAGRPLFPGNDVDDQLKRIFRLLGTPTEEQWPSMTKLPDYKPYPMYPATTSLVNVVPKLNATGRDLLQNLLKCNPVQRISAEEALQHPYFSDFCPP

## Cc1cccc(-c2cccc3onc(N)c23)c1
[1]
  Ki: > 100 µM (inactive)
[2]
  Ki: 2 µM (active)
[3]
  Ki: 100 µM (active)
[4]
  Ki: 31.6 µM (active)
[5]
  Ki: 100 µM (active)
[6]
  Ki: 3.16 µM (active)
[7]
  Ki: 39.8 µM (active)
[8]
  Ki: 5.01 µM (active)
[9]
  Ki: > 63.1 µM (inactive)
[10]
  Ki: 79.4 µM (active)
[11]
  Ki: 25.1 µM (active)
[12]
  Ki: 20 µM (active)
[13]
  Ki: 3.16 µM (active)
[14]
  Ki: 31.6 µM (active)
[15]
  Ki: 63.1 µM (active)
[16]
  Ki: 39.8 µM (active)
[17]
  Ki: 25.1 µM (active)
[18]
  Ki: 100 µM (active)
[19]
  Ki: 5.01 µM (active)
[20]
  Ki: 10 µM (active)
[21]
  Ki: 15.8 µM (active)
[22]
  Ki: 15.8 µM (active)
[23]
  Ki: 6.31 µM (active)
[24]
  Ki: 10 µM (active)
[25]
  Ki: 79.4 µM (active)
[26]
  Ki: 3.16 µM (active)
[27]
  Ki: 50.1 µM (active)
[28]
  Ki: 39.8 µM (active)
[29]
  Ki: 39.8 µM (active)
[30]
  Ki: 10 µM (active)
[31]
  Ki: 5.01 µM (active)
[32]
  Ki: 10 µM (active)
[33]
  Ki: 50.1 µM (active)
[34]
  Ki: 15.8 µM (active)
[35]
  Ki: 12.6 µM (active)
[36]
  Ki: 7.94 µM (active)
